Laboratory results: patent US6423707B1, “Nitroimidazole ester analogues and therapeutic applications” (California Pacific Medical Center, priority 2000, dated 2002)
Values after ≈ are worked out from the molar mass of the structure shown. Read-outs that look alike come from different tables or passages of the source.

How the values were obtained:
[1] = tested on: metronidazole resistant H. pylori isolate (ATCC strain 43579); assay: Helicobacter pylori microbicidal assay (Example 12); format: cell-based; details: for MBC: Helicobacter pylori
[2] = tested on: Helicobactor pylori ATCC strain 43579; assay: microbe, parasite or virus in culture; format: cell-based; details: Helicobacter pylori, ATCC43579, 72 h, read-out: MBC H. Pylori 43579
[3] = tested on: Ohio State university Helicobactor pylori isolate working seed lot #061697; assay: microbe, parasite or virus in culture; format: cell-based; details: Helicobacter pylori, 72 h, read-out: MBC OSU Isolate 061697
[4] = tested on: another H pylori isolate (a virulent human isolate used in the germ-free pig model); assay: microbe, parasite or virus in culture; format: cell-based; details: Helicobacter pylori
[5] = ATCC43579, 72 h, read-out: MBC (Minimal Bactericidal Concentration), lowest concentration that killed 100% of the H. pylori working solution, ATCC strain 43579, metronidazole-resistant, 72 hours
[6] = relative to positive control (=1), ATCC strain 43579
[7] = ATCC43579, 72 h, read-out: MBC (Minimal Bactericidal Concentration)
[8] = ATCC43579, lowest concentration that killed 100% of the H. pylori working solution, ATCC strain 43579, metronidazole-resistant, 72 hours, read-out: MBC (Minimal Bactericidal Concentration)

Compound | Bactericidal Activity Index [1] | MBC [2] | MBC [3] | Bactericidal Activity Index [1, 6] | other results
2-Methyl-5-nitro-1H-imidazole-1-ethyl 9,10-dihydro-9,10-dioxo-2-anthracenecarboxylate [Formula 9] | 7.4 |  |  |  | MBC (Minimal Bactericidal Concentration) [1]: 12 µg/mL
2-Methyl-5-nitro-1H-imidazole-1-ethyl 9-oxo-9H-thioxanthene-3-carboxylate [Formula 6] | 6.4 |  |  |  | MBC (Minimal Bactericidal Concentration) [1]: 14 µg/mL
2-methyl-5-nitro-1H-imidazole-1-ethyl 1-ethyl-1,4-dihydro-7-methyl-4-oxo-1,8-naphthyridine-3-carboxylate [Formula 10] | 12.7 |  |  |  | MBC (Minimal Bactericidal Concentration) [1]: 7 µg/mL
Cc1ncc([N+](=O)[O-])n1CCOC(=O)c1cccnc1 [Formula 1C, 2-Methyl-5-nitro-1H-imidazole-1-ethyl Nicotinate] |  | 22.3 µg/mL | 22.3 µg/mL | 17.8 | MBC [1, 5]: 4 µg/mL; MBC (Minimal Bactericidal Concentration) ([1]; lowest concentration that killed 100% of the H. pylori working solution, ATCC strain 43579, metronidazole-resistant, 72 hours): 5 µg/mL
Cc1ncc([N+](=O)[O-])n1CCOC(=O)c1ccc([N+](=O)[O-])o1 [Formula 2C, 2-Methyl-5-nitro-1H-imidazole-1-ethyl 5-nitro-2-furoate] | 29.7 | 12.6 µg/mL | 12.6 µg/mL |  | melting point: 150 to 152 °C; MBC [1, 7]: 3 µg/mL
Cc1ncc([N+](=O)[O-])n1CCOC(=O)c1cc(C(=O)OCCn2c([N+](=O)[O-])cnc2C)cc([N+](=O)[O-])c1 [Formula 3C, Di (2-methyl-5-nitro-1H-imidazole-1-ethyl) 5-nitro-1,3-benzenedicarboxylate] | 29.7 | 19.8 µg/mL | 19.8 µg/mL |  | MBC [1, 7]: 3 µg/mL
Cc1ncc([N+](=O)[O-])n1CCOC(=O)c1cc(-c2ccccc2)nc2ccccc12 [Formula 4C, 2-Methyl-5-nitro-1H-imidazole-1-ethyl 2-phenyl-4-quinolinecarboxylate] |  | 10.3 µg/mL | 20.5 µg/mL | 45 | melting point: 122 to 124 °C; MBC [4]: 10.2 µg/mL; MBC [1, 5]: 2 µg/mL
Cc1ncc([N+](=O)[O-])n1CCOC(=O)N1c2ccccc2Sc2ccccc21 [Formula 5C, 2-Methyl-5-nitro-1H-imidazole-1-ethyl phenothiazine-10-carboxylate] |  | 10.3 µg/mL | 10.3 µg/mL | 44.5 | MBC [4]: 10.2 µg/mL; MBC [1, 5]: 2 µg/mL
Cc1ncc([N+](=O)[O-])n1CCOC(=O)c1cc(=O)c2ccccc2o1 [Formula 7, 2-Methyl-5-nitro-1H-imidazole-1-ethyl 4-oxo-4H-1-benzopyran-2-carboxylate] |  |  |  | 8.9 | melting point: 210 to 212 °C (dec.); MBC [1, 8]: 10 µg/mL
Cc1ncc([N+](=O)[O-])n1CCOC(=O)c1ccc(-c2ccc(Cl)cc2[N+](=O)[O-])o1 [Formula 13] |  |  |  |  | MBC [1, 7]: > 97 µg/mL
CCn1cc(C(=O)OCCn2c([N+](=O)[O-])cnc2C)c(=O)c2ccc(C)nc21 [Formula 15] |  |  |  | 8.9 | MBC [1, 8]: 15 µg/mL
Cc1ncc([N+](=O)[O-])n1CCO [Positive Control, metronidazole, reference compound] |  |  |  | 1 | MBC [1, 8]: 89 µg/mL (≈ 520 µM)
